Data as given in US12502382B2, “EPAC1 inhibitors for the treatment of idiopathic pulmonary fibrosis” (INSERM (Institut National de la Santé et de la Recherche …, priority 2019, dated 2025).

Key:
protein kinase A (PKA) = conditions: Laudette et al. 2019; cited from earlier work
[1] = system: mouse model of bleomycin-induced pulmonary fibrosis; experiment: qPCR of marker mRNA in lung and RV tissues of bleomycin-challenged mice; assay type: in vivo
Experimental: Intratracheal bleomycin animal model. All of the animal experiments and handling were performed in accordance with NIH Guide for the Care and Use of Laboratory Animals. Animals were anesthetized by IP injection of xylazine/ketamine and were secured to a tray in the supine position. After intubation, the board was tilted at 45 degrees, and the IA-1C Microsprayer tip (PennCentury, Wyndmoor, PA) was inserted through the lumen of the angiocath. Animals were subjected to a single intratracheal injection of BLM (50 μL; 4 U/Kg) for 28 days. The pharmacological inhibitor of Epac1, AM-001, was injected intraperitoneally every alternate day (10 mg/kg) for 2 weeks.
(§1) Total RNA was isolated using TRIzol™ (Invitrogen) and purified using RNeasy mini columns (Qiagen), according to the manufacturer's instructions. The cDNA synthesis kit (Applied Biosystems, Foster City, CA) was used to synthesized cDNA, as described by the manufacturer. Quantitative RT-PCR was performed using the PerfeCTa SYBR™ Green FastMix kit (Quantabio, Beverly, MA) and specific primers against the indicated genes, according to the manufacturer's instructions. Fold changes in gene expression were determined using the relative comparison method with normalization to GAPDH as an internal loading control.
Using a therapeutic strategy, mice were randomly allocated to a sham control-treated group that received intratracheal saline and PF group that received a single intratracheal aerosolization of BLM (4 U/kg). After 2 weeks, the BLM-challenged group was randomly assigned to receive either a vehicle or the Epac1 inhibitor AM-001 for two weeks (FIG. 4A). Vehicle or AM-001 was injected intraperitoneally every alternate day (10 mg/kg) for 2 weeks. […] To further investigate the potential therapeutic effect of Epac1 inhibition in PF, the interstitial fibrosis level and the vascular remodeling were next evaluated by histological analysis after 2 weeks of treatment. […] The inventors also measured by RT-qPCR the expression of several markers of fibrosis in the lung samples.

IPF fibroblasts [2] = experiment: qPCR of IL-6, α-SMA and FOXO3 mRNA in IPF fibroblasts; assay type: cell-based, human; conditions: 20 μM for 48 h
Experimental: (§2) Cell Culture. Normal human lung fibroblast (NHLF) and lung fibroblast from IPF patients were purchased from Lonza, Inc. (Allendale, NJ) and cultured as recommended in FGM-2 medium supplemented with 5% fetal bovine serum (FBS) in 5% CO2 at 37° C. and passaged at the confluence. All the cell lines were tested by the manufacturers and negative for HIV-1, HBV, HCV, mycoplasma, bacteria, yeast, and fungi.
as §1

[3] = system: fibrosis markers (COL1, COL3, CTGF, TGFβ) in NHLF cells; experiment: qPCR of TGF-β1-induced fibrosis marker mRNA in NHLF; assay type: cell-based, human; conditions: TGF-β1 2 ng/mL 48 hrs, inhibitor 20 μM 48 hrs
Experimental: as §2
(§3) Pharmacological treatment. Cells were seeded at 250,000 cells/well in 6-well plates and maintained in a 37° C. incubator with 5% CO2 for 24 hrs prior to use. Cells were treated with TGF-β1 (2 ng/mL; 48 hrs) alone or in combination with either Epac1 inhibitor CE3F4 (20 μM; 48 hrs) or AM-001 (20 μM; 48 hrs).
as §1

IPF fibroblasts [4] = experiment: Immunoblot of phospho-SMAD2/3, phospho-STAT3, phospho-AKT in IPF fibroblasts; assay type: cell-based, human; conditions: IPF fibroblast
Experimental: as §2
SDS-PAGE and Immunoblot Analysis. Protein lysates were prepared using RIPA lysis buffer (Boston BioProducts) containing a Protease/Phosphatase Inhibitor Cocktail (Pierce). After centrifugation for 20 min at 15000×g, the protein concentrations were determined using a bicinchoninic acid (BCA) assay (Sigma-Aldrich). The proteins were then separated by SDS-polyacrylamide gel electrophoresis and transferred to polyvinylidene difluoride membranes. The membranes were blocked with 5% Skim milk and hybridized overnight at 4° C. with the following primary antibodies: Epac1 (Cell signaling), phospho-SMAD2/3 (Cell signaling), phospho-STAT3 (Cell signaling), phospho-AKT (Cell signaling), Total AKT (Cell signaling), and GAPDH (Thermofisher). The membranes were then incubated with the appropriate secondary HRP-conjugated antibody (Cell signaling) for 1 hour, and the blots were developed using the ECL System (Thermofisher).

IPF fibroblasts [5] = experiment: BrdU proliferation assay in IPF fibroblasts; assay type: cell-based, human; conditions: basal condition, preliminary data
Experimental: as §2
(§4) The proliferation of NHLFs was measured by 5-bromo-2′-deoxyuridine (BrdU) incorporation using the Cell Proliferation ELISA, BrdU (colorimetric) assay (Roche, Indianapolis, IN), according to the manufacturer's instructions.

[6] = system: myocardial I/R injury and chronic β-AR activation; conditions: Laudette et al. 2019; cited from earlier work
Epac1 = molecular target: T1, Epac1 (Homo sapiens, UniProt O95398); conditions: Laudette et al. 2019; cited from earlier work
T1 sequence (O95398 1-923): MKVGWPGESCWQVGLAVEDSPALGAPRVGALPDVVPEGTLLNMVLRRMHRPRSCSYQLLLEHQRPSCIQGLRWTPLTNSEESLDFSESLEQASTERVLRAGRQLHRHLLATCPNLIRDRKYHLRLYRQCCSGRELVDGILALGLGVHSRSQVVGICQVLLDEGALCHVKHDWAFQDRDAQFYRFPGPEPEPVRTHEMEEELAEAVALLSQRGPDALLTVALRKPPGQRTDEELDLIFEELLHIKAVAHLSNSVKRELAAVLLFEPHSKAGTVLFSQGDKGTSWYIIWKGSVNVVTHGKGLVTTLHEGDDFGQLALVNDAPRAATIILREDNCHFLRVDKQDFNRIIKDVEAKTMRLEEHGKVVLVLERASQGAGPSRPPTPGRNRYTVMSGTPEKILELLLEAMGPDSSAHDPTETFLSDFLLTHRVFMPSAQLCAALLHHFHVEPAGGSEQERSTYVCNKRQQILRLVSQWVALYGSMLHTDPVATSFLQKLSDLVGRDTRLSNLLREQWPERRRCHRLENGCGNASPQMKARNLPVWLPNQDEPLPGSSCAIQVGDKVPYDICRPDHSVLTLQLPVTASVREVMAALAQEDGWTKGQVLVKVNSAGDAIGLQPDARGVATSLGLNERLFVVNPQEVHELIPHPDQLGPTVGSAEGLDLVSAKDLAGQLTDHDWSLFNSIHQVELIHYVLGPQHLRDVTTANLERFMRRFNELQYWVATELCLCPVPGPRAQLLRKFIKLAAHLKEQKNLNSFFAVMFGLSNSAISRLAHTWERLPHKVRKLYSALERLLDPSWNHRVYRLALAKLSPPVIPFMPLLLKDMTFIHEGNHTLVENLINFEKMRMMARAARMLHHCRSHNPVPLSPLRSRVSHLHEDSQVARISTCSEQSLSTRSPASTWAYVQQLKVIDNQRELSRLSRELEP

[7] = system: mouse model of bleomycin-induced pulmonary fibrosis; experiment: Hemodynamics and RV hypertrophy in bleomycin-induced pulmonary fibrosis mouse model; assay type: in vivo; conditions: 10 mg/kg i.p. every alternate day for 2 weeks
Experimental: Intratracheal bleomycin animal model. […] Animals were anesthetized by IP injection of xylazine/ketamine and were secured to a tray in the supine position. After intubation, the board was tilted at 45 degrees, and the IA-1C Microsprayer tip (PennCentury, Wyndmoor, PA) was inserted through the lumen of the angiocath. Animals were subjected to a single intratracheal injection of BLM (50 μL; 4 U/Kg) for 28 days.
Heart hemodynamic studies. The mice were anesthetized with (2-4%) isoflurane, intubated via tracheotomy, and mechanically ventilated with 1-2% isoflurane and oxygen (tidal volume, 6 mL/kg; respiratory rate, 100 breaths per minute). The thoracic cavity was opened, and the organs were accessed through a sternotomy. Once the pericardium was opened, and the heart was fully accessible, an ultrasonic flow probe (flow probe 2.5S176; Transonic Systems Inc., Ithaca, NY) was inserted into the RV to collect the right ventricular systolic pressure (RVSP). Hemodynamic data were recorded using a Scisense PV Control Unit (Scisense, Ontario, Canada).
Right Ventricular Weight Measurement. After the hemodynamic data were collected, the mice were harvested to collect the heart and lungs. […] The Fulton Index was calculated by the weight ratio of the RV weight to the LV plus septum weight (RV weight/LV+Septum weight) to specifically illustrate the RV hypertrophy. […]

[8] = system: mouse model of bleomycin-induced pulmonary fibrosis; experiment: Histology (Masson's trichrome, H&E, WGA) in bleomycin-induced pulmonary fibrosis mouse model; assay type: in vivo
Experimental: Intratracheal bleomycin animal model. […] Animals were anesthetized by IP injection of xylazine/ketamine and were secured to a tray in the supine position. After intubation, the board was tilted at 45 degrees, and the IA-1C Microsprayer tip (PennCentury, Wyndmoor, PA) was inserted through the lumen of the angiocath. Animals were subjected to a single intratracheal injection of BLM (50 μL; 4 U/Kg) for 28 days. The pharmacological inhibitor of Epac1, AM-001, was injected intraperitoneally every alternate day (10 mg/kg) for 2 weeks.
Hematoxylin & Eosin and Masson's trichrome staining. Lung tissue was harvested, inflated with PBS/OCT (50:50), and fixed (frozen in −80° C.) in OCT. Sections were cut to 8 μm and adhered to colorfrost glass slides (ThermoFisher). Lung tissue sections were stained with hematoxylin and eosin (H&E) and Masson's trichrome (Sigma-Aldrich) and visualized using light microscopy. The medial thickness and collagen deposition were then quantified using ImageJ software.
RV sections were fixed in 1% paraformaldehyde (PFA) and stained using fluorescence-tagged wheat germ agglutinin (WGA) (Invitrogen) overnight at 4° C. and imaged with on Zeiss Observer Z.1 microscope (Carl Zeiss) at ×160 magnification. The outlines of cardiac myocytes were traced, and the cardiomyocyte area was calculated using ImageJ software.

Epac2 = Epac2 (Homo sapiens, UniProt Q8WZA2); conditions: Laudette et al. 2019; cited from earlier work
Sequence of Epac2 (Q8WZA2 whole entry, species assumed): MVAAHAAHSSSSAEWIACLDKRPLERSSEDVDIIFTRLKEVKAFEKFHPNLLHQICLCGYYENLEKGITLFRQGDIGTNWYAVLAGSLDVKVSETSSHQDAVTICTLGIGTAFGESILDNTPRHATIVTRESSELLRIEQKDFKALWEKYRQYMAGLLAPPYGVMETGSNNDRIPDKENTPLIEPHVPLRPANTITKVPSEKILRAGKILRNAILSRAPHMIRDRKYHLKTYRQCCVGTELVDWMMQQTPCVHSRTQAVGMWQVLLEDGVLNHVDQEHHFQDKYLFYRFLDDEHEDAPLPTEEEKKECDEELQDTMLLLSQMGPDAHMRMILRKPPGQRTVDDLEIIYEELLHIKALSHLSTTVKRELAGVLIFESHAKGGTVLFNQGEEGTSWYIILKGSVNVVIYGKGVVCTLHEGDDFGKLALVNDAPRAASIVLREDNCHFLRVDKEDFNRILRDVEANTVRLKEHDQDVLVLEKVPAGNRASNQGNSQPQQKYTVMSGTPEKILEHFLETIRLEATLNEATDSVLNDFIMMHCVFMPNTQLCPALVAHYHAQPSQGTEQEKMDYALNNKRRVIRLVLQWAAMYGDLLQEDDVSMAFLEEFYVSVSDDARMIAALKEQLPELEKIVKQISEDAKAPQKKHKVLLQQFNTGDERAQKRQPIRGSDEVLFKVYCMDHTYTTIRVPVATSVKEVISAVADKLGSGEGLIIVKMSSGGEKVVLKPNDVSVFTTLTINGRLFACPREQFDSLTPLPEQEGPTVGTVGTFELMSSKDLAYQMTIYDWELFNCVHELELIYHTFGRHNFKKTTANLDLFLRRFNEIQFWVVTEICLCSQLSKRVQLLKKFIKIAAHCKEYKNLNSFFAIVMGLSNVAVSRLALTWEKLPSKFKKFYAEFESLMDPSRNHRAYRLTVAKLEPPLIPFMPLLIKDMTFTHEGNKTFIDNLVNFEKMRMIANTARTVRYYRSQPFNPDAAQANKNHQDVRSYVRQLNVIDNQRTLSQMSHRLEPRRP

[9] = system: Normal human lung fibroblast (NHLF); experiment: BrdU proliferation assay in normal human lung fibroblasts; assay type: cell-based; conditions: TGFβ treatment and serum stimulation (0.1% or 5% FBS), 48 hours, inhibitor 20 μM
Experimental: as §2, §3, §4

[10] = prevents its use for in vivo applications; cited from earlier work
[11] = BLM+AM-001 vs BLM+vehicle, WT mice
[12] = BLM-challenged mice, 10 mg/kg i.p. every alternate day for 2 weeks

For Nc1c(C(=O)Nc2ccc(F)cc2)sc2nc(-c3cccs3)cc(-c3ccccc3)c12 [AM-001, 3-amino-N-(4-fluorophenyl)-4-phenyl-6-(thiophen-2-yl)thieno[2,3-b]pyridine-2-carboxamide], the “antagonist effect on protein kinase A (PKA) activity” value (protein kinase A (PKA)) is given as “no antagonist effect”, the “FGFR1 mRNA level” value [1, 11] is given as “significantly decreasing” and the “TNC mRNA level” value [1, 11] is given as “trend decrease”. For the same compound, the “upregulation of fibrosis and hypertrophic gene markers (ANP, BNP, β-MHC) in RV” value ([1]; BLM-challenged mice, RV tissues) was “compromised”, the “COLI mRNA level in lung samples” value [1, 12] was “markedly reduced” and the “COLIII mRNA level in lung samples” value [1, 12] was “markedly reduced”. For the same compound, the “CTGF mRNA level in lung samples” value [1, 12] was “markedly reduced”, the “TGFβ mRNA level in lung samples” value [1, 12] was “markedly reduced” and the “FOXO3 mRNA expression” value (IPF fibroblasts [2]) was “restored”. For the same compound, the “IL-6 mRNA expression” value (IPF fibroblasts [2]) was “attenuates”, the “α-SMA mRNA expression” value (IPF fibroblasts [2]) was “attenuates” and the “mRNA expression of fibrosis markers (COL1, COL3, CTGF, TGFβ) induced by TGFβ” value [3] was “impaired the upregulation”. The “phosphorylation of AKT” value (IPF fibroblasts [4]) was “decreased”, the “phosphorylation of SMAD2/3” value (IPF fibroblasts [4]) was “decreased” and the “phosphorylation of STAT3” value (IPF fibroblasts [4]) was “decreased”. The “IPF fibroblasts proliferation (BrdU)” value (IPF fibroblasts [5]) was “decrease”, the “cardioprotection against myocardial I/R injury and detrimental effects of chronic β-AR activation” value [6] was “cardioprotective properties” and the “inhibitory activity toward Epac1” value (Epac1) was “selective inhibitory activity”. The “right ventricular systolic pressure (RVSP)” value ([7]; BLM 4 U/kg intratracheal, vs control group) was “reduction”, the “RV hypertrophy (Fulton Index)” value ([7]; BLM-challenged mice) was “significantly decreased” and the “pulmonary vascular remodeling (medial thickness of distal pulmonary arteries)” value ([8]; BLM mice, vs vehicle-treated BLM mice) was “markedly diminished”. The “cardiomyocyte size in RV (WGA staining)” value [8, 12] was “reduction”, the “interstitial and perivascular fibrosis (Masson's trichrome)” value ([8]; BLM-challenged mice, 10 mg/kg i.p. every alternate day for 2 weeks, vs vehicle) was “significantly decreased” and the “antagonist effect on Epac2” value (Epac2) was “no antagonist effect”. The “proliferation of NHLFs (BrdU)” value [9] was “inhibited”.

In the case of CC1CCc2c(cc(Br)c(F)c2Br)N1C=O (stereo not shown) [CE3F4], the “mRNA expression of fibrosis markers (COL1, COL3, CTGF, TGFβ) induced by TGFβ” value [3] is given as “impaired the induction”, the biodisponibility [10] is given as “low” and the “proliferation of NHLFs (BrdU)” value [9] is given as “significantly decreased”.
